The results in this text go back to patent US10696691B2, “BACE1 inhibitors” (Hoffmann-La Roche Inc., priority 2015, dated 2020).

One assay has as its target T1, BACE1 (Homo sapiens, UniProt P56817).
T1 construct: endogenous in cells; host or cells: HEK293 APP cells
The assay is described as follows: Cellular Aβ-lowering assay (Abeta 40 AlphaLISA, HEK293 APP cells). The class given is cell-based. The following applies: 18-20 hrs incubation, Aβ 40 in culture supernatants, read-out: BACE1 cell act. Aβ40 IC50. As to the method:
Cellular Aβ-Lowering Assay:
The Abeta 40 AiphaLISA Assay can be used. The HEK293 APP cells were seeded in 96 well Microtiter plates in cell culture medium (Iscove's, plus 10% (v/v) fetal bovine serum, penicillin/streptomycin) to about 80% confluency and the compounds were added at a 3× concentration in ⅓ volume of culture medium (final DMSO concentration was kept at 1% v/v). After 18-20 hrs incubation at 37° C. and 5% CO2 in a humidified incubator, the culture supernatants were harvested for the determination of Aβ 40 concentrations using Perkin-Elmer Human Amyloid beta 1-40 (high specificity) Kit (Cat # AL275C).
In a Perkin-Elmer White Optiplate-384 (Cat #6007290), 2 ul culture supernatants were combined with 2 μl of a 10× AlphaLISA Anti-hABAcceptor beads+Biotinylated Antibody Anti-AD 1-40 Mix (50 μg/mL/5 nM). After 1 hour room temperature incubation, 16 μl of a 1.25× preparation of Streptavidin (SA) Donor beads (25 μg/mL) were added and incubated for 30 minutes in the Dark. Light Emission at 615 nm was then recorded using EnVision-Alpha Reader. Levels of Aβ 40 in the culture supernatants were calculated as percentage of maximum signal (cells treated with 1% DMSO without inhibitor). The IC50 values were calculated using the Excel XLfit software.

The test system of another assay is Aβ40. The assay is described as follows: Lowering of Aβ40 in brain of wild-type mice. The format is in vivo. The conditions noted are these: female C57Bl/6J mice, 30 mg/kg per os, 4 h, brain Aβ40 as percentage of the vehicle group; for response vs control in vivo at 30 mg/kg: Mus musculus, po, read-out: Aβ40 (wt mice, brain). As to the method: Lowering of Aβ40 in Brain of Wild-Type Mice:
Animals and Housing Conditions.
Animals were maintained in a 12/12 h light/dark cycle, with lights starting at 6 a.m., and experiments were conducted during the light phase, Animal housing and experimental procedures were in line with ethical and legal guidelines and were authorized by local veterinary authorities.
Female C57Bl/6J mice were treated with a dose of 30 mg/kg of the compounds, 3-4 animals per treatment group. The test compound was dissolved in 5% EtOH, 10% Solutol, and was applied per os at 10 mL/kg. After 4 h, the animals were sacrificed and brain and plasma were collected. The brain was cut into halves and immediately frozen on dry ice. Brain was used for measurement of Aβ40 and plasma was used for determination of compound exposure. […] Brain tissue was homogenized in 2% DEA buffer in a Roche MagnaLyser (20″, 4000 rpm) and subsequently centrifuged for 1 h at 100000 g. DEA was reduced to 0.2% in 50 mM NaCl and one-half of the DEA lysate was passed over an Oasis Solid phase extraction plate (Waters; cat. no. 186000679), which had been activated with MeOH and equilibrated in dH2O (1 mL each). After washes in 10% and 30% MeOH (1 mL each), the Aβ-peptides were eluted in 0.8 mL of 2% NH4OH in 90% MeOH. The eluate was dried over a N2 flow, and the dried sample was reconstituted in 30 μL of AlphaLISA assay buffer. Aβ40 was determined by an AlphaLISA assay (Perkin-Elmer). In a white 96-well, half area microplate (Perkin-Elmer cat. no. 6005561), 20 μL of the reconstituted sample were mixed with 5 μL of biotinylated BAP-24 (specific for C-terminus of Aβ40) (Brockhaus, M.; Onmberg, J.; Rohrig, S.; Loetscher, H.; Wittenburg, N.; Baumeister, R.; Jacobsen, H.; Haass, C. Caspasemediated cleavage is not required for the activity of presenilins in amyloidogenesis and NOTCH signaling. NeuroReport 1998, 9, 1481-1486.) stock=4.4 mg/mL, f.c.5.5 μg/mL), and 5 μL 252Q6 acceptor beads (252Q6 antibody, Invitrogen AMB0062) had been previously conjugated with AlphaLISA Acceptor beads (Perkin-Elmer cat. no. 6772002); final dilution 1:500). The mix was incubated for 1 h at RT in the dark. Then 20 μL of Streptavin-coated Donor Beads (Perkin-Elmer cat. no. 6760002, final dilution 1:125) were added and this final mix was incubated in the dark for another 30 min at RT before RFU was measured in an AlphaScreen Reader (Perkin-Elmer Envision 2104). The value obtained for A40 in the treated animals was related to the value in the vehicle group and is given in %. Alternatively a commercial ELISA was used for Aβ40 determination (Wako ELISA: (“Human/Rat 3 Amyloid (40) ELISA kit Wako II”; cat nr. 294-64701) following the manufacture's instruction. Also here the Aβ-lowering efficacy was calculated as percentage of the vehicle group.

T1 sequence (P56817 46-501): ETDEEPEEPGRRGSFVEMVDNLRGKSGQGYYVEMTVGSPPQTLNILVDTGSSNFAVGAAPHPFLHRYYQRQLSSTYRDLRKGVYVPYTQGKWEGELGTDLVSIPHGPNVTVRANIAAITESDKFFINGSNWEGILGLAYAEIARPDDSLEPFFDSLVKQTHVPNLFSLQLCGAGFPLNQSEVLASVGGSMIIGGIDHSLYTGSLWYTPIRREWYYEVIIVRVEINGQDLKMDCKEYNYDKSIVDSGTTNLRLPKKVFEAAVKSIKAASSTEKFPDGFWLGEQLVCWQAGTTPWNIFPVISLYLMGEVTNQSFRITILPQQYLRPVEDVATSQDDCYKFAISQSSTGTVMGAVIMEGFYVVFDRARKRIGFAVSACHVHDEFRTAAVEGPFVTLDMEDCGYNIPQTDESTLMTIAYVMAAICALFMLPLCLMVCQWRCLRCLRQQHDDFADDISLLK

Regarding `CC1(C)C(N)=N[C@](C)(c2cc(NC(=O)c3ccc(F)cn3)ccc2F)[C@@H]2CCN=[S@@]21=O` [Example 17AB, N-(3-((3aS,4R,8R)-6-amino-4,7,7-trimethyl-8-oxido-3,3a,4,7-tetrahydro-2H-isothiazolo[1,5-a][1,4]thiazin-4-yl)-4-fluorophenyl)-5-fluoropicolinamide], at BACE1, the IC50 was 300 pM. Further, the response vs control in vivo at 30 mg/kg in the assay on Aβ40 amounted to 40%.

Consider `CC1(C)C(N)=N[C@](C)(c2cc(NC(=O)c3cnc(OC(F)F)cn3)ccc2F)[C@@H]2CCN=[S@@]21=O` [Example 15AB, N-(3-((3aS,4R,8R)-6-amino-4,7,7-trimethyl-8-oxido-3,3a,4,7-tetrahydro-2H-isothiazolo[1,5-a][1,4]thiazin-4-yl)-4-fluorophenyl)-5-(difluoromethoxy)pyrazine-2-carboxamide], for which the half-maximal inhibitory concentration (IC50) on BACE1 is 200 pM. Further, the response vs control in vivo at 30 mg/kg with Aβ40 is 20%.

With `CC1(C)C(N)=N[C@](C)(c2cc(NC(=O)c3cnc(OCC(F)F)cn3)ccc2F)[C@@H]2CCN=[S@@]21=O` [Example 7AB, N-(3-((3aS,4R,8R)-6-amino-4,7,7-trimethyl-8-oxido-3,3a,4,7-tetrahydro-2H-isothiazolo[1,5-a][1,4]thiazin-4-yl)-4-fluorophenyl)-5-(2,2-difluoroethoxy)pyrazine-2-carboxamide], at BACE1, the IC50 amounted to 400 pM. In addition, the response vs control in vivo at 30 mg/kg in the assay on Aβ40 was 42%.

`CC1(C)C(N)=N[C@](C)(c2cc(NC(=O)c3ncc(OC(F)F)cc3Cl)ccc2F)[C@@H]2CCN=[S@@]21=O` [Example 13AB, N-(3-((3aS,4R,8R)-6-amino-4,7,7-trimethyl-8-oxido-3,3a,4,7-tetrahydro-2H-isothiazolo[1,5-a][1,4]thiazin-4-yl)-4-fluorophenyl)-3-chloro-5-(difluoromethoxy)picolinamide]: the half-inhibitory concentration (IC50) on BACE1 was 300 pM. The response vs control in vivo at 30 mg/kg in the assay with Aβ40 came out at 39%.

Regarding `Cc1cc(C#N)cnc1C(=O)Nc1ccc(F)c([C@@]2(C)N=C(N)C(C)(C)[S@@]3(=O)=NCC[C@@H]23)c1` [Example 1AB, N-(3-((3aS,4R,8R)-6-amino-4,7,7-trimethyl-8-oxido-3,3a,4,7-tetrahydro-2H-isothiazolo[1,5-a][1,4]thiazin-4-yl)-4-fluorophenyl)-5-cyano-3-methylpicolinamide], on BACE1, the 50% inhibitory concentration (IC50) stood at 90 pM. In the assay on Aβ40, the response vs control in vivo at 30 mg/kg came to 14%.

On to `COc1cnc(C(=O)Nc2ccc(F)c([C@@]3(C)N=C(N)C(C)(C)[S@@]4(=O)=NCC[C@@H]34)c2)c(C)c1` [Example 26AB, N-(3-((3aS,4R,8R)-6-amino-4,7,7-trimethyl-8-oxido-3,3a,4,7-tetrahydro-2H-isothiazolo[1,5-a][1,4]thiazin-4-yl)-4-fluorophenyl)-5-methoxy-3-methylpicolinamide], for which the 50% inhibitory concentration (IC50) at BACE1 turned out to be 600 pM. The response vs control in vivo at 30 mg/kg with Aβ40 was determined as 11%.

Take `CC1(C)C(N)=N[C@](C)(c2cc(NC(=O)c3ncc(Cl)cc3Cl)ccc2F)[C@@H]2CCN=[S@@]21=O` [Example 3AB, N-(3-((3aS,4R,8R)-6-amino-4,7,7-trimethyl-8-oxido-3,3a,4,7-tetrahydro-2H-isothiazolo[1,5-a][1,4]thiazin-4-yl)-4-fluorophenyl)-3,5-dichloropicolinamide]: on BACE1, the IC50 was 1000 pM. For the same compound, in the assay on Aβ40, the response vs control in vivo at 30 mg/kg is 49%.

As for `Cc1cc(C#N)cnc1C(=O)Nc1ccc(F)c([C@@]2(C)N=C(N)C(C)(C)[S@]3(=O)=NCC[C@H]23)c1` [Example 1BA, N-(3-((3aR,4R,8S)-6-amino-4,7,7-trimethyl-8-oxido-3,3a,4,7-tetrahydro-2H-isothiazolo[1,5-a][1,4]thiazin-4-yl)-4-fluorophenyl)-5-cyano-3-methylpicolinamide], on BACE1, the IC50 worked out at 3600 pM. In the assay on Aβ40, the response vs control in vivo at 30 mg/kg is 73%.

Regarding `CC1(C)C(N)=N[C@](C)(c2cc(NC(=O)c3ccc(C#N)cc3Cl)ccc2F)[C@@H]2CCN=[S@@]21=O` [Example 4AB, N-(3-((3aS,4R,8R)-6-amino-4,7,7-trimethyl-8-oxido-3,3a,4,7-tetrahydro-2H-isothiazolo[1,5-a][1,4]thiazin-4-yl)-4-fluorophenyl)-2-chloro-4-cyanobenzamide], the IC50 on BACE1 worked out at 13100 pM. In addition, in the assay on Aβ40, the response vs control in vivo at 30 mg/kg stood at 102%.

For `CC1(C)C(N)=N[C@](C)(c2cc(NC(=O)c3cnc(OCC(F)(F)C(F)F)cn3)ccc2F)[C@@H]2CCN=[S@@]21=O` [Example 22AB, N-(3-((3aS,4R,8R)-6-amino-4,7,7-trimethyl-8-oxido-3,3a,4,7-tetrahydro-2H-isothiazolo[1,5-a][1,4]thiazin-4-yl)-4-fluorophenyl)-5-(2,2,3,3-tetrafluoropropoxy)pyrazine-2-carboxamide], the IC50 at BACE1 was 200 pM. The “Aβ40 (wt mice, brain)” value in the assay on Aβ40 was 51%.

As to `COc1cnc(C(=O)Nc2ccc(F)c([C@@]3(C)N=C(N)C(C)(C)[S@@]4(=O)=NCC[C@@H]34)c2)cn1` [Example 14AB, N-(3-((3aS,4R,8R)-6-amino-4,7,7-trimethyl-8-oxido-3,3a,4,7-tetrahydro-2H-isothiazolo[1,5-a][1,4]thiazin-4-yl)-4-fluorophenyl)-5-methoxypyrazine-2-carboxamide], the 50% inhibitory concentration (IC50) on BACE1 was 500 pM. Also, the response vs control in vivo at 30 mg/kg in the assay with Aβ40 came to 3%.

Turning to `CCOc1ccc(C(=O)Nc2ccc(F)c([C@@]3(C)N=C(N)C(C)(C)[S@@]4(=O)=NCC[C@@H]34)c2)nc1` [Example 25AB, N-(3-((3aS,4R,8R)-6-amino-4,7,7-trimethyl-8-oxido-3,3a,4,7-tetrahydro-2H-isothiazolo[1,5-a][1,4]thiazin-4-yl)-4-fluorophenyl)-5-ethoxypicolinamide], the IC50 on BACE1 is 500 pM. Moreover, the response vs control in vivo at 30 mg/kg in the assay on Aβ40 was 40%.

One may read the IC50 as the concentration at which inhibition is half-maximal.
